Measurements as given in paper PMC8001788, “Decursin Alleviates Mechanical Allodynia in a Paclitaxel-Induced Neuropathic Pain Mouse Model” (Cells, 2021).

Target: transient receptor potential vanilloid 1 (TRPV1) (Homo sapiens, UniProt Q8NER1)
Test: Fura-2 calcium imaging of capsaicin-induced Ca2+ in human TRPV1 stable HEK293 cells
Format: cell-based

transient receptor potential vanilloid 1 (TRPV1), sequence (Q8NER1 whole entry): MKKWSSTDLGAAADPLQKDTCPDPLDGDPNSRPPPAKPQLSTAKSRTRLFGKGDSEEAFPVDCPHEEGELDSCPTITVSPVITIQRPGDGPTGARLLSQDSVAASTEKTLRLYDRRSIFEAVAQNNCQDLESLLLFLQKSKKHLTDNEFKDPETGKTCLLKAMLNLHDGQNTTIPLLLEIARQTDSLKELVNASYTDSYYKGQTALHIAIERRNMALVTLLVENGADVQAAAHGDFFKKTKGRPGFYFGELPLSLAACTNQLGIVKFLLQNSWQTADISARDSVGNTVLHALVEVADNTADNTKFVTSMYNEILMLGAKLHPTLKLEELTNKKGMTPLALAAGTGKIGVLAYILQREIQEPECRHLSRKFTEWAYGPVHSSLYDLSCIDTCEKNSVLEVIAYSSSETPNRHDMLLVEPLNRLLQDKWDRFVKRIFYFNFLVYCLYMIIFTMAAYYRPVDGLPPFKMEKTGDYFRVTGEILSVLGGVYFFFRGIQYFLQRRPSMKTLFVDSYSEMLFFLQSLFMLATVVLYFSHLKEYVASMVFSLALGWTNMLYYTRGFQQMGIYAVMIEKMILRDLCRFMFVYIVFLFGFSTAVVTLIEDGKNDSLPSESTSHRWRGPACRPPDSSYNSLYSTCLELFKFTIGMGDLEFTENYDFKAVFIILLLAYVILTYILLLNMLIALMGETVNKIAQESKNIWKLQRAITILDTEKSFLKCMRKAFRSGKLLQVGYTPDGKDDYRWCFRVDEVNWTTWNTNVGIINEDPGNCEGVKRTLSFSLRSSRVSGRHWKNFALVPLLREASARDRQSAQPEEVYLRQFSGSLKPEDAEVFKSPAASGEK

CC(C)=CC(=O)O[C@H]1Cc2cc3ccc(=O)oc3cc2OC1(C)C [decursin]
IC50: 690 ± 105 nM
